Reference: patent US20240373844A1, “PYROGLUTAMIC ACID AS AN HERBICIDE SAFENER AND METHODS OF USE THEREOF” (Verdesian Life Sciences U.S., LLC, priority 2021, published 2024)

Test system: corn (Zea mays) plants
Assay: Corn plants treated with glyphosate with and without PGA soil drench: dry biomass and leaf area (Experiment 1)
Assay type: in vivo
Conditions: 7 days after planting
Description: Corn seeds were sown in standard 10 cm diameter pots in peat-based media (Fafard #2/Sunshine Mix #8 soilless media: 75% Canadian sphagnum peat moss, 20% perlite, 5% vermiculite, trace: dolomitic limestone, wetting agent, silicon). Plants were grown under the following environmental conditions: • Temperature: 30° C. day/23° C. • Relative humidity: 60-70% • Photoperiod: 16 hours light/8 hours dark • Light intensity: 800-1000 μMols/m^2/s Treatments were administered 5 days after planting. In experiment 1, glyphosate was applied at 1%, 10%, and 100% of label rate, with and without PGA (0.137 g/L), as outlined in the table below. In Experiment 2, Bayer All-in-One® herbicide was applied at 10% and 100% of the label rate, with and without PGA (0.137 g/L). In both treatments, control plants received water. In both experiments, herbicide was applied as a 0.5 mL droplet by pipet on the 1st fully expanded leaf; PGA was applied as a 50 mL soil drench. Plants were grown in a completely randomized design for an additional 2 days to allow the treatments to take effect. At 7 days after planting, plants were photographed, and destructively harvested for leaf area and dry biomass.

Row | Compound | Avg(DryWt) (1% Label Rate Glyphosate, 0.0 g/L PGA) | Avg(DryWt) (10% Label Rate Glyphosate, 0.0 g/L PGA) | Avg(DryWt) (100% Label Rate Glyphosate, 0.0 g/L PGA) | Avg(DryWt) (0.137 g/L PGA drench with 1% Label Rate Glyphosate) | Avg(DryWt) (0.137 g/L PGA drench with 10% Label Rate Glyphosate) | Avg(DryWt) (0.137 g/L PGA drench, 0 Glyphosate)
1 | O=C(O)CNCP(=O)(O)O [Glyphosate, glyphosate] | 0.12 g | 0.06 g | 0.05 g |  |  | 
2 | O=C1CC[C@@H](C(=O)O)N1 [PGA, pyroglutamic acid] |  |  |  | 0.10 g | 0.10 g | 0.15 g
